Data reported in article PMC10852989, “Combining cisplatin and a STING agonist into one molecule for metalloimmunotherapy of cancer” (National Science Review, 2024).
Read-outs that look alike come from different tables or passages of the source.

Assays:
BxPC3 cells = experiment: 72 h MTT cytotoxicity, BxPC3; format: cell-based, human
Method: (§1) Cytotoxicity. Tumor cells were cultured overnight after inoculation in RPMI-1640 medium or DMEM supplemented with 10% FBS. All cultures were maintained in an incubator in a highly humidified atmosphere of 95% air with 5% CO2 at 37 °C. Growth inhibition was measured with an MTT assay. Briefly, 2800–7000 cells per well in culture medium (100 μL) were plated in 96-well plates (Corning). The cells were treated in triplicate with different concentrations of complexes at 37 ℃ for 72 h. Stock solutions of CDDP and oxoplatin were prepared in PBS, while stock solutions of conjugates I and II and the ligand MSA-2 were prepared in DMSO. The stock solutions were diluted in complete medium (DMSO < 0.5%). An aliquot of MTT solution (40 μL, 2.5 mg·mL^–1) in PBS buffer was added to each well and incubated for 4 h. The supernatant was removed and DMSO (150 μL) was added to solubilize the formazan crystals. The amount of formazan was determined using a microplate reader at 570 nm after the plates were shaken for 30 min. The optical density (OD) was used to calculate the percentage of viable cells relative to untreated control values. Background readings for MTT incubated in cell-free medium were subtracted from each value before calculation. […] The mean IC50 values were calculated using data from three replicates.

Caov3 cells = experiment: 72 h MTT cytotoxicity, Caov3; format: cell-based, human
Method: as §1

HK-2 cells = experiment: 72 h MTT cytotoxicity, HK-2; format: cell-based
Method: as §1

PANC-1 cells [1] = experiment: 72 h MTT cytotoxicity, PANC-1; format: cell-based, human
Method: as §1

Pan02 cells = experiment: 72 h MTT cytotoxicity, Pan02; format: cell-based, mouse
Method: as §1

MCF-7 cells = experiment: 72 h MTT cytotoxicity, MCF-7; format: cell-based, human
Method: as §1

[2] = tested on: cancer cell lines (MCF-7, Caov3, PANC-1, BxPC3, Pan02); experiment: 72 h MTT cytotoxicity, panel of cancer cell lines; format: cell-based; details: read-out: IC50 in these cancer cell lines
Method: as §1

[3] = tested on: BMDCs cultured with Pan02 cell CM; experiment: IFN-β ELISA of BMDCs incubated with conditioned medium of drug-treated Pan02 cells; format: cell-based, mouse; details: Pan02 treated 48 h at 5 μM (Pt-E-I 20 μM); BMDCs 50% CM, 18 h
Method: (§2) ELISA. Bone marrow-derived dendritic cells (BMDCs) were prepared according to the following method. Briefly, femurs and tibias were removed from 4-6 week-old C57BL/6 mice, and the bone marrow cells were isolated. The bone marrow cells were incubated in T cell medium [RPMI-1640 medium (with GlutaMAX), supplemented with 10% FBS, 1% HEPES, 1% NEAA, 1% sodium pyruvate, and 0.1% βME] containing 20 ng/mL GM-CSF for 6 days after erythrocyte lysis, during which time half of the medium was replaced with fresh T cell medium once and the cytokines were supplemented. Then, the BMDCs were harvested on day 7 for further study.
Pan02 tumor cells were treated with various drugs at a concentration of 5 μM for 48 h, and then the drug-pretreated tumor cell supernatant was obtained by centrifugation at a speed of 12000 rpm/min for 5 min and used as conditioned media (CM) subsequently.
(§3) BMDCs were cultured with 50% CM plus 50% fresh medium for 18 h. In addition, BMDCs were cultured with fresh medium containing different complexes or mixtures (15 μM CDDP and I, a mixture of I and 8 equiv. AsA, and equal AsA). Then, all the BMDC supernatant was collected and centrifuged for subsequent cytokine analysis using ELISA kits, which were performed according to the manufacturer’s instructions.

STING pathway in BMDCs = experiment: IFN-β and IL-6 ELISA in supernatants of BMDCs treated with complexes; format: cell-based, mouse; details: 18 h, ELISA, 15 μM
Method: as §2, §3

[4] = reduction by ascorbic acid (AsA) followed by 1H-/195Pt-NMR; format: physicochemical; details: 20 mM, 8 equiv. AsA, 5:1 d6-DMSO:D2O, 37 °C, dark
Method: Reduction of I and II. Samples were prepared by reacting I or II (20 mM) with 8 equiv. AsA in 5:1 d6-DMSO:D2O solutions. The time course of the reaction was monitored by ^1H-NMR and ^195Pt-NMR after incubation of the samples were incubated at 37 °C for 0, 3, 6, 12, 24, 36, 48, 60, 72, 84, 96, or 120 h in the dark.

[5] = octanol-water partition coefficient, shake-flask, ICP-MS; format: physicochemical; details: n-octanol / phosphate buffer 10 mM pH 7.4, room temperature
Method: Lipid-water partition coefficient. The shake-flask method was used to measure the partition coefficients of CDDP, I and II. Briefly, a mixture containing equal volumes of n-octanol and phosphate buffer (10 mM, pH 7.4) was shaken on a mechanical shaker at room temperature for 24 h. Complexes (10 mM) in phosphate buffer (presaturated with n-octanol) were mixed with an equal volume of n-octanol (presaturated with phosphate buffer), and the mixture was shaken for 24 h at room temperature. Centrifugation was carried out at 2500 rpm for 30 min to separate the two phases. The aqueous layer was carefully separated, and the Pt content in the initial and final aqueous phases was analyzed by inductively coupled plasma mass spectrometry (ICP-MS). The log PO/W was measured using the following equation: log PO/W = log [(Ptinitial ‒ Ptfinal)/Ptfinal].

PANC-1 cells [6] = experiment: cellular uptake of Pt by ICP-MS, PANC-1; format: cell-based, human; details: PANC-1 cells, 6 h incubation, ICP-MS
Method: Cellular uptake. All incubations were carried out in the dark. After the designated incubation period, the medium was removed, and the cells were harvested with trypsin and rinsed twice with PBS (1×, 20 mM, pH 7.4), followed by digestion and ICP-MS.
Cancer cells were seeded in a 6-well plate at a density of 5×10^5 cells per well. After incubation for 24 h, the cells were treated with each complex for 6 h.
Cancer cells preincubated with metabolic inhibitor (MIs) were also evaluated. These cells were preincubated with 2-deoxy-D-glucose and oligomycin (50 mM and 5 μM, respectively, 1 h) or NH4Cl (50 mM, 1 h) at 37 ℃ followed by incubation with DMEM containing CDDP, I or II at 37 ℃ for 6 h.
Digestion. Cell pellets were collected by centrifugation and then digested with nitric acid (100 µL) for 2 h at 95 °C, followed by the addition of H2O2 (50 µL) at 95 °C for 0.5 h. HCl (100 µL) was added and kept at 95 °C until the total volume was less than 20 μL. Water was then added to dilute the solution to 1 mL, and the final Pt content was determined by ICP-MS.

[7] = H&E histology of major organs after treatment; format: in vivo, mouse; details: C57BL/6 mice after treatment, 10.0 μmol/kg
Method: Hematoxylin and eosin staining. Tissue samples were subjected to histopathological examination using hematoxylin and eosin (H&E) staining. Mouse organs (heart, liver, spleen, lungs and kidneys) were collected in 4% paraformaldehyde for proper fixation and then embedded in paraffin using a tissue embedding machine. Sections were prepared in an orderly manner by dewaxing, dehydration, and H&E staining. The tissue morphology was observed under a fluorescence microscope (Olympus BX41, Japan).

Pan02 tumors = experiment: in vivo antitumor activity, C57BL/6 mice bearing Pan02 tumors; design: species or system mouse; details: C57BL/6 mice, Pan02 tumors, 10.0 μmol/kg every 2 days for 16 days, intravenous
Method: In vivo antitumor activity. Female C57BL/6 mice (6–8 weeks old) were subcutaneously implanted with pan02 cells (2 × 10^6) in the right flank. Once the tumor volume reached approximately 60 mm^3, the mice were assigned to 4 groups at random (n = 5–8) and received treatment with PBS, CDDP (10.0 μmol/kg), I (10.0 μmol/kg), or a mixture of CDDP (10.0 μmol/kg) and MSA-2 (10.0 μmol/kg). The mice received 9 treatments. Changes in body weight and tumor volume were recorded. All the experimental procedures utilizing mice were performed in accordance with the Guidelines for Care and Use of Laboratory Animals of Nanjing University and experiments were approved by the Institutional Animal Care and Use Committee of Nanjing University (IACUC-2101001, SL-019-00).

For `COc1cc2cc(C(=O)CCC(=O)O)sc2cc1OC` [MSA-2], the IC50 (BxPC3 cells; Homo sapiens, BXPC-3) was > 50 µM, the IC50 (Caov3 cells; Homo sapiens, Caov-3) was > 50 µM and the IC50 (HK-2 cells; HK-2, human normal kidney cell line) was > 50 µM. For the same molecule, the IC50 (PANC-1 cells [1]; Homo sapiens, PANC-1) was > 50 µM, the IC50 (Pan02 cells; Mus musculus, Pan02) was > 50 µM and the IC50 (MCF-7 cells; Homo sapiens, MCF7) was > 50 µM. For the same molecule, the IC50 [2] was > 50 µM, the “IFN-β secretion by BMDCs incubated with treated Pan02 cell CM” value [3] was “moderate” and the “IFN-β secretion by BMDCs” value (STING pathway in BMDCs) was “robust”. For the same molecule, the “IL-6 secretion by BMDCs” value (STING pathway in BMDCs) was “robust”.
For `N.N.[Cl-].[Cl-].[OH-].[OH-].[Pt+4]` [Oxoplatin, Cis-diamminedichloro-trans-dihydroxyplatinum], the IC50 (BxPC3 cells) was > 50 µM, the IC50 (Caov3 cells) was > 50 µM and the IC50 (HK-2 cells; human normal kidney cell line) was 38.7 ± 4.1 µM. For the same molecule, the IC50 (PANC-1 cells [1]) was > 50 µM, the IC50 (Pan02 cells) was > 50 µM and the IC50 (MCF-7 cells) was 8.2 ± 0.7 µM.
With `COc1cc2cc(C(=O)CCC(=O)[O][Pt]([NH2])([NH2])([Cl])([Cl])[O]C(=O)CCC(=O)c3cc4cc(OC)c(OC)cc4s3)sc2cc1OC` [conjugate II] the IC50 (BxPC3 cells) was 4.9 ± 0.8 µM, the IC50 (Caov3 cells) was 5.3 ± 0.4 µM and the “time at which reduction by AsA finished” value [4] was 120 h. The IC50 (HK-2 cells; human normal kidney cell line) was 3.6 ± 1.2 µM, the IC50 (PANC-1 cells [1]) was 6.9 ± 0.9 µM and the “octanol-water partition coefficient (logPo/w)” value [5] was 2.1. The IC50 (Pan02 cells) was 8.4 ± 0.7 µM, the “cellular Pt content” value (PANC-1 cells [6]) was 2.3 ng Pt/mg protein and the IC50 (MCF-7 cells) was > 64 µM.
`[NH2][Pt]([NH2])([Cl])[Cl]` [CDDP, cisplatin] showed an IC50 (BxPC3 cells) of 1.6 ± 0.1 µM, an IC50 (Caov3 cells) of 26.8 ± 2.2 µM and an IC50 (HK-2 cells; human normal kidney cell line) of 8.2 ± 0.5 µM. The IC50 (PANC-1 cells [1]) was 11.1 ± 1.3 µM, the IC50 (Pan02 cells) was 8.3 ± 0.6 µM and the “histological findings in major organs” value [7] was “substantial blood cell stasis in the liver blood sinuses and thickening of the alveolar wall as well as large infiltrates of inflammatory cells in the trachea and bronchus”. For the same molecule, the “cellular Pt content” value (PANC-1 cells [6]) was 1.7 ng Pt/mg protein, the IC50 (MCF-7 cells) was 5.4 ± 0.3 µM and the tumor volume (Pan02 tumors) was 200.2 ± 20.6 mm^3. For the same molecule, the “IFN-β secretion by BMDCs incubated with treated Pan02 cell CM” value [3] was “slightly increased”.
